Assay results taken from article PMC8585833, “Serum concentrations of antidepressants, antipsychotics, and antiepileptics over the bariatric surgery procedure” (European Journal of Clinical Pharmacology, 2021).
Blank lines part the entries; values can stand above or below the compound they belong to.

Tests used:
[1] = historical data or matched non-surgery subjects as controls; cited from earlier work
[2] = selection limit for extremely hydrophilic or extremely lipophilic substances in literature search; source not stated; cited from earlier work
[3] = Dose-adjusted steady-state trough serum concentrations before and after low-calorie diet and bariatric surgery; type: in vivo, human; settings: for Change in dose-adjusted concentration over the pre-surgery low-calorie diet: after the pre-surgery diet, before surgery, median weight reduction 6 kg; for Reduction of dose-adjusted concentration on the last day of sampling: post-surgery versus pre-surgery, substances with samples from six or more participants
From the text: We designed the study as a naturalistic longitudinal, prospective case series with intra-individual comparisons of drug concentrations over time, before and up to 1 year after the surgical procedure.
The participants contributed blood samples to the current study during routine pre-surgery visits before, and post-surgery visits about 8 weeks, 6 months, and 1 year after, the surgery. Pre-surgery sampling generally occurred twice: at an initial preoperative assessment visit, and just before surgery. Between these visits, that is, before surgery, patients were required to adhere to a low-calorie diet and show a weight reduction. The samples were stored as serum in −80 °C at a biobank, and analysed after all samples had been collected.
Before every routine visit at which the sampling was to occur, we contacted the participants by telephone to systematically obtain information on the current dose as well as adherence to the drug treatment in question over the 2 preceding weeks. Samples were excluded from the data set if non-adherence less than four elimination half-lives prior to sampling was reported; exceptions were made for occasional missed doses of fluoxetine. Half-lives applied were those described for a drug or its metabolite in the summary of product characteristics. We also asked for and recorded concomitant drug treatment, weight, and smoking status. To be able to relate potential changes in concentration to health consequences, we asked the participants during the follow-up phone calls, using an open question, if anything had happened to their health since the last visit. To obtain trough blood concentrations, we strived to schedule the routine visits before lunchtime and the participants were instructed not to take morning tablets before the sampling.
Specific substances were analysed concomitantly, using clinical routine methods, at accredited laboratories at the Department of Clinical Chemistry, Sahlgrenska University Hospital, Gothenburg, Sweden, or (as for gabapentin, hydroxybupropion, mianserine, pregabalin, paroxetine and topiramate) at the Department of Clinical Pharmacology, St. Olav’s Hospital, Trondheim, Norway. Analysis methods were based on liquid chromatography/tandem mass spectrometry or (for lamotrigine and valproic acid) enzyme immunoassay.
Statistical analyses were performed using SPSS, version 23.0 (IBM SPSS Statistics for Windows, Armonk, NY, USA). Participants treated with the same substance before and after surgery, with one or more trough sample concentrations available, were included in the analysis. To allow interindividual and intraindividual comparisons, serum concentrations were adjusted for defined daily dose (DDD). For example, since DDD for citalopram is 20 mg, a DDD-adjusted citalopram concentration of 100 nmol/L could represent a measured concentration of 50, 100, or 200 nmol/L, given a daily dose of 10, 20, or 40 mg, respectively. To compare pre- to post-surgery concentrations, as well as pre- to post-diet concentrations, we used Wilcoxon signed rank test for substances with samples available for six or more individuals. We used Spearman’s correlation to explore the relationship between the ratio of the post-/pre-diet concentrations and (i) the distribution coefficient for the drug in question, i.e., the logarithm of the ratio of its concentration in a lipophilic and a hydrophilic solution (logD), as well as (ii) the weight loss in kilograms for pregabalin.

SMILES: CO[C@H]1C[C@@H]2CC[C@@H](C)[C@@](O)(O2)C(=O)C(=O)N2CCCC[C@H]2C(=O)O[C@H]([C@H](C)C[C@@H]2CC[C@@H](O)[C@H](OC)C2)CC(=O)[C@H](C)/C=C(\C)[C@@H](O)[C@@H](OC)C(=O)[C@H](C)C[C@H](C)/C=C/C=C/C=C/1C [sirolimus]
Concentration change after the bariatric surgery procedure [1]: appeared to decrease
logD [2]: > 4

SMILES: CN(C)C(=N)N=C(N)N [metformin]
Concentration change after the bariatric surgery procedure [1]: appeared to increase

SMILES: CC/C(=C(\c1ccccc1)c1ccc(OCCN(C)C)cc1)c1ccccc1 [tamoxifen]
Concentration change after the bariatric surgery procedure [1]: appeared to decrease

SMILES: Cc1cc2c(s1)Nc1ccccc1N=C2N1CCN(C)CC1 [Olanzapine]
Dose-adjusted drug concentration Median (IQR), Pre-diet/pre-surgery ([3]; human, in vivo): 113 (N/A) nmol/L

SMILES: CC1(C)O[C@@H]2[C@@H](CO[C@@]3(COS(N)(=O)=O)OC(C)(C)O[C@@H]23)O1 [Topiramate]
Dose-adjusted drug concentration Median (IQR), Pre-diet/pre-surgery ([3]; Table 2A, antiepileptics, trough serum, adjusted for dose in DDDs): 33 (N/A) µmol/L
Dose-adjusted drug concentration Median (IQR), Post-surgery ([3]; Table 2A, antiepileptics, trough serum, adjusted for dose in DDDs, last observation carried forward, median 379 days after surgery): 37 (N/A) µmol/L
Dose-adjusted drug concentration Median (IQR), post-diet ([3]; Table 2B, antiepileptics, trough serum, adjusted for dose in DDDs, after pre-surgery low-calorie diet): 31 (N/A) µmol/L
Dose-adjusted drug concentration Median (IQR), pre-diet ([3]; Table 2B, antiepileptics, trough serum, adjusted for dose in DDDs, before low-calorie diet): 39 (N/A) µmol/L

Second part, the compound after the results:

Concentration, Post-surgery ([3]; Case 3, GBP, day +68, drug dose 15 mg): 30 nM
Concentration, Post-surgery ([3]; Case 3, GBP, day +368, drug dose 30 mg): 203 nM
Concentration, Baseline ([3]; Case 3, GBP, drug dose 15 mg): 96 nM
Concentration, Post-surgery ([3]; Case 4, Sleeve, day 213, drug dose 30 mg): 87 nM
Concentration, Post-surgery ([3]; Case 4, Sleeve, day 393, drug dose 45 mg): 119 nM
Concentration, Baseline ([3]; Case 4, Sleeve, drug dose 30 mg): 140 nM
Change in dose-adjusted concentration over the pre-surgery low-calorie diet [3]: decreased
Dose-adjusted drug concentration Median (IQR), Pre-diet/pre-surgery ([3]; human, in vivo): 148 (131–170) nmol/L
Dose-adjusted drug concentration Median (IQR), post-diet ([3]; human, in vivo): 76 (50–102) nmol/L
Dose-adjusted drug concentration Median (IQR), pre-diet ([3]; human, in vivo): 138 (120–157) nmol/L
concentration at 379 days after surgery (median), trough ([3]; human, in vivo): 88 nM
Reduction of dose-adjusted concentration on the last day of sampling [3]: 41%
SMILES: CN1CCN2c3ncccc3Cc3ccccc3C2C1 (stereo not drawn) [Mirtazapine]

Course of dose-adjusted concentration after surgery ([3]; after surgery, following the low-calorie diet): continued to increase also after surgery
SMILES: NCCC(Oc1ccc(C(F)(F)F)cc1)c1ccccc1 (stereo not drawn) [norfluoxetine]

Dose-adjusted drug concentration Median (IQR), Pre-diet/pre-surgery ([3]; human, in vivo): 22 (N/A) nmol/L
Dose-adjusted drug concentration Median (IQR), post-diet ([3]; human, in vivo): 69 (N/A) nmol/L
Dose-adjusted drug concentration Median (IQR), pre-diet ([3]; human, in vivo): 22 (N/A) nmol/L
Dose-adjusted drug concentration Median (IQR), Post-surgery ([3]; human, in vivo, 379 days after surgery (median), trough): 167 (N/A) nmol/L
SMILES: Fc1ccc([C@@H]2CCNC[C@H]2COc2ccc3c(c2)OCO3)cc1 [Paroxetine]

Concentration, Post-surgery ([3]; Case 3, GBP, day +68, drug dose 200 mg): 66 nM
Concentration, Post-surgery ([3]; Case 3, GBP, day +368, drug dose 200 mg): 78 nM
Concentration, Baseline ([3]; Case 3, GBP, drug dose 200 mg): 130 nM
Change in dose-adjusted concentration over the pre-surgery low-calorie diet [3]: decreased
Dose-adjusted drug concentration Median (IQR), Pre-diet/pre-surgery ([3]; human, in vivo): 51 (27–84) nmol/L
Dose-adjusted drug concentration Median (IQR), post-diet ([3]; human, in vivo): 39 (23–53) nmol/L
Dose-adjusted drug concentration Median (IQR), pre-diet ([3]; human, in vivo): 66 (43–87) nmol/L
concentration at 379 days after surgery (median), trough ([3]; human, in vivo): 25 nM
Reduction of dose-adjusted concentration on the last day of sampling [3]: 51%
SMILES: CN[C@H]1CC[C@@H](c2ccc(Cl)c(Cl)c2)c2ccccc21 [Sertraline]

Dose-adjusted drug concentration Median (IQR), Pre-diet/pre-surgery ([3]; Table 2A, trough serum, adjusted for dose in DDDs): 283 (N/A) nmol/L
Dose-adjusted drug concentration Median (IQR), Post-surgery ([3]; Table 2A, trough serum, adjusted for dose in DDDs, last observation carried forward, median 379 days after surgery): 218 (N/A) nmol/L
Dose-adjusted drug concentration Median (IQR), post-diet ([3]; Table 2B, trough serum, adjusted for dose in DDDs, after pre-surgery low-calorie diet): 279 (N/A) nmol/L
Dose-adjusted drug concentration Median (IQR), pre-diet ([3]; Table 2B, trough serum, adjusted for dose in DDDs, before low-calorie diet): 283 (N/A) nmol/L
SMILES: CN(C)CCC=C1c2ccccc2CCc2ccccc21 [Amitriptyline]
